The source of these data is patent US20160213647A1, “COMPOSITIONS AND METHODS FOR INHIBITING VIRAL INFECTION” (priority 2015, published 2016).

Like-named read-outs stand apart in the source and are kept apart here. A value given as a limit tells only on which side of the number the result lay.

Data set [1] concerns Peripheral Blood Mononuclear Cells (PBMCs). The following applies: human.
A short description of data set [2]: in vitro. To be noted: human.
A short description of data set [3]: in vitro. The following applies: human. The source holds these as a separate data set.
The next data set has as its system HIV-1 91US001. The data set is described as follows: microbe, parasite or virus in culture. To be noted: Human immunodeficiency virus 1, PBMC.
The next data set deals with HIV-1 92HT599. Nature of the data set: microbe, parasite or virus in culture. To be noted: Human immunodeficiency virus 1, PBMC.
A further data set concerns HIV-2 CBL20 H9. Nature of the data set: microbe, parasite or virus in culture. The following applies: Human immunodeficiency virus 2, PBMC.
The next data set deals with HIV-2 CDC 310319. Nature of the data set: microbe, parasite or virus in culture. To be noted: Human immunodeficiency virus 2, PBMC.
For data set [4], the system named is HIV-1 isolate NL4-3. The data set is described as follows: microbe, parasite or virus in culture. To be noted: Human immunodeficiency virus 1, NL43, PBMC.
For a further data set, the system named is HIV-1 isolate MDR807. Nature of the data set: microbe, parasite or virus in culture. To be noted: Human immunodeficiency virus 1, PBMC.
In a further data set the test system is HIV-1 isolate A17. The data set is described as follows: microbe, parasite or virus in culture. The following applies: Human immunodeficiency virus 1, PBMC.
Another data set has as its system HIV-1 isolate 1022-48. The data set is described as follows: microbe, parasite or virus in culture. To be noted: Human immunodeficiency virus 1, PBMC.
In a further data set the test system is HIV-1 isolate 4736_4. The data set is described as follows: microbe, parasite or virus in culture. To be noted: Human immunodeficiency virus 1, PBMC.
A further data set relates to HIV-1 MDR 769. The data set is described as follows: microbe, parasite or virus in culture. To be noted: Human immunodeficiency virus 1, PBMC.
Another data set concerns HIV-1 isolate MDR769. Nature of the data set: microbe, parasite or virus in culture. To be noted: Human immunodeficiency virus 1, PBMC.
A further data set deals with A/Udorn/72 (H3N2). The data set is described as follows: microbe, parasite or virus in culture. In kind it is cell-based. To be noted: Influenza A virus, H3N2, HEK-293T.
Another data set deals with A/Ca/07/09 (H1N1). The data set is described as follows: microbe, parasite or virus in culture. To be noted: Influenza A virus, H1N1, HEK-293T. The class given is cell-based.
Data set [5] in a line: in vitro. The following applies: human. The source holds these as a separate data set.
The subject of another data set is CHIKV 899 wild-type. Nature of the data set: Chikungunya virus-induced cell death (CPE, MTS/PMS) assay in Vero A cells. The following applies: Chikungunya virus, Vero, read-out: EC50 WT.
In data set [6] the test system is HIV-1 isolate NL4-3.

Turning to `Cc1cn([C@H]2C[C@H](N=[N+]=[N-])[C@@H](CO)O2)c(=O)[nH]c1=O` [AZT, azidothymidine], the CC50 (in [1]; in “in vitro [2]”; in the data set “in vitro [3]”) was > 1000 nM throughout. For the same compound, the IC50 was 17.4 nM in the data set on HIV-1 91US001; 11.9 nM in the data set with HIV-1 92HT599; < 0.1 nM in the data set with HIV-2 CBL20 H9; 5.73 nM in the data set with HIV-2 CDC 310319; > 1000 nM in the data set on HIV-1 isolate 1022-48. Further, the IC90 was 9.96 nM in the data set with HIV-1 isolate NL4-3 [4]; 39.6 nM with HIV-1 isolate NL4-3 [4] (read-out: IC50); 162 nM in the data set on HIV-1 isolate MDR807; > 1000 nM in the data set on HIV-1 isolate MDR807 (read-out: IC50); 11.6 nM in the data set with HIV-1 isolate A17; 27.4 nM in the data set on HIV-1 isolate A17 (read-out: IC50). Besides, the IC90 in the data set on HIV-1 isolate 1022-48 is > 1000 nM; in the data set with HIV-1 isolate 4736_4 it was 2.57 nM; with HIV-1 isolate 4736_4 (read-out: IC50), 20.6 nM.

Take `CC(C)Nc1cccnc1N1CCN(C(=O)c2cc3cc(NS(C)(=O)=O)ccc3[nH]2)CC1` [Delavirdine]: the CC50 in “in vitro [3]” was > 2000 nM. Besides, the IC90 with HIV-1 isolate NL4-3 [4] is 30.6 nM; in the data set on HIV-1 isolate NL4-3 [4] (read-out: IC50), 57.6 nM; with HIV-1 isolate A17, > 2000 nM. In the data set with HIV-1 isolate A17, the IC50 was > 2000 nM.

Take `O=C1Nc2ccc(Cl)cc2[C@@](C#CC2CC2)(C(F)(F)F)O1` [Efavirenz]: the CC50 (in [1]; in the data set “in vitro [2]”) was > 1000 nM throughout. In the data set with HIV-1 MDR 769, this compound came in with an IC50 of 0.66 nM.

As to `COc1cc2c(cc1Cc1cccc(Cl)c1F)c(=O)c(C(=O)O)cn2[C@H](CO)C(C)C` [Elvitegravir], in the data set “in vitro [3]”, the CC50 was > 1000 nM. Also, the IC90 is 0.52 nM in the data set on HIV-1 isolate NL4-3 [4], 1.25 nM in the data set with HIV-1 isolate NL4-3 [4] (read-out: IC50), 81.9 nM in the data set on HIV-1 isolate 4736_4 and 251 nM with HIV-1 isolate 4736_4 (read-out: IC50).

On to `Cc1cccc(C)c1OCC(=O)N[C@@H](Cc1ccccc1)[C@@H](O)C[C@H](Cc1ccccc1)NC(=O)[C@H](C(C)C)N1CCCNC1=O` [Lopinavir], for which, in data set [1] (7 days), the CC50 was > 1000 nM. In “in vitro [2]”, the CC50 at 7 days is > 1000 nM. In the data set on HIV-1 MDR 769, this compound came in with an IC50 of 827 nM.

For `Cc1ccnc2c1NC(=O)c1cccnc1N2C1CC1` [Nevirapine], the CC50 in “in vitro [3]” was > 10000 nM. Also, the IC90 is 75.3 nM in the data set with HIV-1 isolate NL4-3 [4]; 227 nM in the data set on HIV-1 isolate NL4-3 [4] (read-out: IC50); > 10000 nM in the data set with HIV-1 isolate A17; 70.4 nM with HIV-1 isolate 1022-48; 242 nM in the data set with HIV-1 isolate 1022-48 (read-out: IC50). For the same compound, the IC50 in the data set with HIV-1 isolate A17 was > 10000 nM.

`Cc1nnc(C(=O)NC(C)(C)c2nc(C(=O)NCc3ccc(F)cc3)c(O)c(=O)n2C)o1` [Raltegravir, raltegravir]: in the data set “in vitro [3]”, the CC50 is > 100 nM. Further, the IC90 with HIV-1 isolate NL4-3 [4] was 1.3 nM; with HIV-1 isolate NL4-3 [4] (read-out: IC50), 5.18 nM; with HIV-1 isolate MDR769, 3.64 nM; in the data set on HIV-1 isolate MDR769 (read-out: IC50), 8.95 nM; with HIV-1 isolate MDR807, 0.46 nM; with HIV-1 isolate MDR807 (read-out: IC50), 2.16 nM. For the same compound, the IC90 in the data set with HIV-1 isolate 4736_4 was 74.5 nM; with HIV-1 isolate 4736_4 (read-out: IC50), > 100 nM.

With `NC(=O)c1ncn([C@@H]2O[C@H](CO)[C@@H](O)[C@H]2O)n1` [Ribavirin, reference compound], the figures for the concentration for a half-maximal effect (EC50) in the data set on A/Udorn/72 (H3N2) and in the data set on A/Ca/07/09 (H1N1) were 5240 nM and 12800 nM, respectively. Moreover, the CC50 in the data set “in vitro [5]” is > 100000 nM.

With `CC(C)c1nc(CN(C)C(=O)N[C@H](C(=O)N[C@@H](Cc2ccccc2)C[C@H](O)[C@H](Cc2ccccc2)NC(=O)OCc2cncs2)C(C)C)cs1` [Ritonavir, ritonavir], the IC90 in the data set with HIV-1 isolate NL4-3 [4] was 45.5 nM; with HIV-1 isolate NL4-3 [4] (read-out: IC50) it was 92.3 nM; in the data set with HIV-1 isolate MDR807 it was 1280 nM; with HIV-1 isolate MDR807 (read-out: IC50), 5940 nM; with HIV-1 isolate 1022-48, > 10000 nM. The half-maximal inhibitory concentration (IC50) in the data set on HIV-1 isolate 1022-48 is > 10000 nM.

Take `NC(=O)c1nc(F)c[nH]c1=O` [T-705, favipiravir, reference compound]: the EC50 in the data set with CHIKV 899 wild-type was 7400 nM.

In the data set with HIV-1 isolate NL4-3 [6], Enfuvirtide registered a concentration for half-maximal inhibition (IC50) of 412 nM and an IC90 of 133 nM.

enfuvirtide: the CC50 in the data set with human PBMCs was > 2000 nM.

What is called IC50 is the concentration that gives 50% inhibition. Low readings indicate greater potency in that assay, high ones weaker potency in that assay. Broadly, the EC50 is the concentration giving half of the maximal effect.
